Test results as given in PubChem BioAssay AID248 (DTP/NCI, 2004).
Several values for one entry are separate records, joined by “and”; a condition that tells them apart may be missing. Equal entries are not always repeated. Toxic doses and inconclusive results are not listed. Rule as the data show it: active = T/C of 150% or more; inactive = T/C below 125%.

Test system: L1210 leukemia ip in BDF1 mice, survival T/C
Test: NCI In Vivo Anticancer Drug Screen. Data for tumor model L1210 Leukemia (intraperitoneal) in B6D2F1 (BDF1) mice
Details: endpoint: mean survival time, higher = longer survival
In short: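 Ratio derived from survival: compound-dosed mice over vehicle-dosed mice, all bearing a transplantable tumor.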

[1] = dose: 100.0 mg/kg/injection, schedule: Q04DX003 (ip), vehicle: Klucel (hydroxypropylcellulose) (HPC)
[2] = dose: 200.0 mg/kg/injection, schedule: Q04DX003 (ip), vehicle: Klucel (hydroxypropylcellulose) (HPC)
[3] = dose: 400.0 mg/kg/injection, schedule: Q04DX003 (ip), vehicle: Klucel (hydroxypropylcellulose) (HPC)

Measured: T/C

CCC[CH2][Sn]([CH2]CCC)([O]C)[O]C
inactive: dose: 4.0 mg/kg/injection, schedule: Q01DX009 (ip), vehicle: Klucel (hydroxypropylcellulose) (HPC) 98 % of control | dose: 4.0 mg/kg/injection, schedule: Q04DX003 (ip), vehicle: Klucel (hydroxypropylcellulose) (HPC) 96 % of control | dose: 8.0 mg/kg/injection, schedule: Q01DX009 (ip), vehicle: Klucel (hydroxypropylcellulose) (HPC) 98 % of control | dose: 8.0 mg/kg/injection, schedule: Q04DX003 (ip), vehicle: Klucel (hydroxypropylcellulose) (HPC) 101 % of control | dose: 16.0 mg/kg/injection, schedule: Q01DX009 (ip), vehicle: Klucel (hydroxypropylcellulose) (HPC) 104 % of control | dose: 16.0 mg/kg/injection, schedule: Q04DX003 (ip), vehicle: Klucel (hydroxypropylcellulose) (HPC) 99 % of control

O=C(CC(O)(C(F)(F)F)C(F)(F)F)c1cc(CC(=O)C(O)(C(F)(F)F)C(F)(F)F)cc(CC(=O)C(O)(C(F)(F)F)C(F)(F)F)c1
inactive: [1] 100 % of control | [2] 92 % of control | [3] 97 % of control

O=C(CCCCC(=O)OCCBr)OCCBr
inactive: dose: 20.0 mg/kg/injection, schedule: Q04DX003 (ip), vehicle: Klucel (hydroxypropylcellulose) (HPC) 100 % of control | dose: 40.0 mg/kg/injection, schedule: Q04DX003 (ip), vehicle: Klucel (hydroxypropylcellulose) (HPC) 105 % of control | dose: 80.0 mg/kg/injection, schedule: Q04DX003 (ip), vehicle: Klucel (hydroxypropylcellulose) (HPC) 114 % of control | [2] 102 % of control

C[Si](C)(C)OC(C(F)(F)F)C(F)(F)F
inactive: dose: 100.0 mg/kg/injection, schedule: Q01DX001 (ip), vehicle: steriod suspending solution 98 % of control | dose: 200.0 mg/kg/injection, schedule: Q01DX001 (ip), vehicle: steriod suspending solution 96 % of control | dose: 400.0 mg/kg/injection, schedule: Q01DX001 (ip), vehicle: steriod suspending solution 86 % of control

C(=Nc1ccccc1)c1ccc2c(c1)COO2
inactive: [1] 101 % of control | [2] 101 % of control | [3] 101 % of control

NC12CC3CC(C1)CC(F)(C3)C2
inactive: dose: 50.0 mg/kg/injection, schedule: Q01DX009 (ip), vehicle: saline 101 % of control | dose: 100.0 mg/kg/injection, schedule: Q01DX009 (ip), vehicle: saline 99 % of control | dose: 200.0 mg/kg/injection, schedule: Q01DX009 (ip), vehicle: saline 101 % of control | dose: 400.0 mg/kg/injection, schedule: Q01DX009 (ip), vehicle: saline 93 % of control

CCOP(=O)(CCO)OCC
inactive: dose: 50.0 mg/kg/injection, schedule: Q01DX005 (ip), vehicle: saline 106 % of control | dose: 100.0 mg/kg/injection, schedule: Q01DX005 (ip), vehicle: saline 106 % of control | dose: 200.0 mg/kg/injection, schedule: Q01DX005 (ip), vehicle: saline 95 % of control | dose: 400.0 mg/kg/injection, schedule: Q01DX005 (ip), vehicle: saline 104 % of control

CC(C)(C)NC(=O)Oc1ccccc1C(=O)Nc1ccccc1
inactive: dose: 50.0 mg/kg/injection, schedule: Q01DX009 (ip), vehicle: saline with Tween-80 97 % of control and 103 % of control | dose: 100.0 mg/kg/injection, schedule: Q04DX002 (ip), vehicle: saline with Tween-80 101 % of control and 103 % of control | dose: 200.0 mg/kg/injection, schedule: Q04DX002 (ip), vehicle: saline with Tween-80 95 % of control and 98 % of control | dose: 400.0 mg/kg/injection, schedule: Q04DX002 (ip), vehicle: saline with Tween-80 92 % of control

Nc1ccc(S(=O)(=O)CI)cc1
inactive: dose: 100.0 mg/kg/injection, schedule: Q01DX001 (ip), vehicle: carboxymethylcellulose (CMC) 100 % of control | dose: 200.0 mg/kg/injection, schedule: Q01DX001 (ip), vehicle: carboxymethylcellulose (CMC) 92 % of control

CCc1ccc(NC(=O)CCC(=O)O)cc1
inactive: dose: 100.0 mg/kg/injection, schedule: Q01DX009 (ip), vehicle: Klucel (hydroxypropylcellulose) (HPC) 102 % of control | dose: 200.0 mg/kg/injection, schedule: Q01DX009 (ip), vehicle: Klucel (hydroxypropylcellulose) (HPC) 93 % of control | dose: 400.0 mg/kg/injection, schedule: Q01DX009 (ip), vehicle: Klucel (hydroxypropylcellulose) (HPC) 90 % of control

CC(C)N(C(=O)COc1ccc(Cl)cc1Cl)c1ccccc1
inactive: dose: 100.0 mg/kg/injection, schedule: Q01DX009 (ip), vehicle: saline with Tween-80 102 % of control | dose: 100.0 mg/kg/injection, schedule: Q04DX003 (ip), vehicle: saline with Tween-80 96 % of control | dose: 200.0 mg/kg/injection, schedule: Q01DX009 (ip), vehicle: saline with Tween-80 106 % of control | dose: 200.0 mg/kg/injection, schedule: Q04DX003 (ip), vehicle: saline with Tween-80 96 % of control | dose: 400.0 mg/kg/injection, schedule: Q01DX009 (ip), vehicle: saline with Tween-80 124 % of control | dose: 400.0 mg/kg/injection, schedule: Q04DX003 (ip), vehicle: saline with Tween-80 91 % of control

CSc1ncnc2c1ncn2N1CCCC1
inactive: dose: 75.0 mg/kg/injection, schedule: Q01DX001 (ip), vehicle: other 101 % of control | dose: 150.0 mg/kg/injection, schedule: Q01DX001 (ip), vehicle: other 97 % of control | dose: 300.0 mg/kg/injection, schedule: Q01DX001 (ip), vehicle: other 98 % of control
